Experimental data: paper PMC11507441, “Oilseed Cakes: A Promising Source of Antioxidant, and Anti-Inflammatory Agents—Insights from Lactuca sativa” (International Journal of Molecular Sciences, 2024)
In brackets after ≈: the same amount, converted by molar mass. Where two headings read alike, the source gives them in different places.

What was measured:
P. aeruginosa = experiment: Antimicrobial screening, zone of inhibition; format: cell-based; details: Table 1; for zone of inhibition at 1000 µg/mL: Pseudomonas aeruginosa, isolated compounds 1 mg/mL, read-out: P. aeruginosa Diameter of Inhibition Zone (mm); for P. aeruginosa %Activity Index: 1 mg/mL, relative to ciprofloxacin
Method: The procedure was performed according to Stylianakis et al.. A comparison of the extract’s zone of inhibition to that of a reference antibiotic’s activity index was determined using the following equation:Activity index = (the inhibition zone of extract/the inhibition zone of the standard) × 100

S. aureus = experiment: Antimicrobial screening, zone of inhibition; format: cell-based; details: Table 1; for zone of inhibition at 1000 µg/mL: Staphylococcus aureus, isolated compounds 1 mg/mL, read-out: S. aureus Diameter of Inhibition Zone (mm); for S. aureus %Activity Index: 1 mg/mL, relative to ciprofloxacin
Method: (§1) The procedure was performed according to […] et al.. A comparison of the extract's zone of inhibition to that of a reference antibiotic's activity index was determined using the following equation:Activity index = (the inhibition zone of extract/the inhibition zone of the standard) × 100

C. albicans = experiment: Antimicrobial screening, zone of inhibition; format: cell-based; details: Table 1; for zone of inhibition at 1000 µg/mL: Candida albicans, isolated compounds 1 mg/mL, read-out: C. Albicans Diameter of Inhibition Zone (mm); for C. Albicans %Activity Index: 1 mg/mL, relative to clotrimazole
Method: as §1

E. coli = experiment: Antimicrobial screening, zone of inhibition; format: cell-based; details: Table 1; for zone of inhibition at 1000 µg/mL: Escherichia coli, isolated compounds 1 mg/mL, read-out: E. coli Diameter of Inhibition Zone (mm); for E. coli %Activity Index: 1 mg/mL, relative to ciprofloxacin
Method: as §1

MCF-7 cancer cell line = experiment: Cytotoxic activity (MTT assay); format: cell-based; details: for IC50: Homo sapiens; for Selectivity Index MCF-7: IC50 normal (WI-38)/IC50 cancer
Method: (§2) The HPLC was performed in the Institute for Plant Biology, TU Braunschweig, using a Young Lin quaternary pump, vacuum degasser, column oven (40 °C), diode array detector (YL9160 PDA), and a Midas Spark Holland autosampler. UV spectra (λ max) were measured in the central laboratory of the Faculty of Pharmaceutical Science at Mansoura University using spectroscopic methanol with an ultraviolet-visible spectrophotometer (Shimadzu 1601 PC, version TCC-240A, Kyoto, Japan). The NMR unit of Mansoura University’s Faculty of Pharmacy obtained nuclear magnetic resonance spectra (^1H-NMR, ^13C-NMR, DEPT-Q, APT, HSQC, and HMBC) using a Bruker DRX 600 NMR spectrometer (600 and 150 MHz for ^1H and ^13C-NMR, respectively) and with the Bruker Corporation Avance III 400 spectrometer, which measures ^1H and ^13C-NMR at 400 and 100 MHz, respectively. The types of solvents that are used are CDCl3, CD3OD, and DMSO-d6. For normal phase chromatography, silica gel G 60–230 mesh (Merck, Darmstadt, Germany) was packed using a wet or dry method in the specified solvent. The purchase of Normal Human lung fibroblast (WI-38), hepatic cancer cell lines (HePG-2), and mammary gland (MCF-7) cell lines from ATCC was made possible by the Holding firm for biological goods and vaccines (VACSERA), which is based in Cairo, Egypt.
(§3) Using the MTT test, the inhibitory effects of substances on cell growth were ascertained using the cell lines compared to normal lung fibroblast cells (WI-38). The selectivity index was calculated via the Selectivity index (SI) equation: SI equals IC50 normal/IC50 cancer.

HepG-2 cancer cell line = experiment: Cytotoxic activity (MTT assay); format: cell-based; details: for IC50: Homo sapiens; for Selectivity Index HepG2: IC50 normal (WI-38)/IC50 cancer
Method: as §2, §3

[1] = Cytotoxic activity (MTT assay), normal cells; format: cell-based; details: human
Method: as §2, §3

ABTS antioxidant assay = format: biochemical; parameters: IC50 in ABTS assay: unit not given beside the values; details: isolated compounds from lettuce seedcake; unit not given
Method: The experiment was performed in triplicate according to Zaky et al.. The absorbance of control of the resulting green-blue solution (ABTS* radical solution) was recorded at λ max 734 nm.

[2] = tested on: carrageenan-induced paw oedema; experiment: Carrageenan-induced paw oedema; format: in vivo; details: dose 10 mg/kg oral, rat
Method: Adult albino rats 180-220 g of both sexes used in the investigation were acquired from the Mansoura University Faculty of Pharmacy's Animal House. Standard laboratory diet and water were provided, and they were housed in cages maintained at a constant temperature of 22 ± 2 °C. The Animal Care and Use Committee (MU-ACUC) of Mansoura University, Egypt, has approved all procedures involving animals with code number: […] Throughout the experiment, medications and extracts were given orally in doses of 1 mL/100 g of the rat's body weight after being solubilized in carboxymethyl cellulose (CMC) in order to create a suspension formula. In this test, rats were divided into six groups, with each group containing 5 animals. Group-1: […] Group-2: Positive control (carrageenan-induced oedema, Sigma (St. Louis, MO, USA)) without any treatment. […] Group-4: […] extract of Lactuca sativa was administered at a 2 g/kg dose. Group-5: Compound (1) is administered at a dose of 20 mg/kg. Group-6: Compound (1) at a dose of 40 mg/kg. Group-7: Combination of standard and compound (1) at doses of (10 + 20) mg/kg, respectively. […] Using a digital vernier calliper, the swelling of the paw that had been injected with carrageenan was measured prior to injection as well as 1, 2, 3, 4, and 5 h following the treatment's induction. The percentage inhibition of oedema in the test animals treated with the extract compared to the carrageenan control group was used to calculate the anti-inflammatory activity. The formula […] was used to calculate the percentage inhibition of inflammation, where “dt” represents the difference in paw volume in the drug-treated group and “dc” represents the difference in paw volume relative to the control group. Moreover, “I” represents the suppression of inflammation.

CAT = CAT activity in rat paw tissue homogenate (carrageenan model); format: in vivo; details: paw tissue 5 h after carrageenan; ibuprofen 10 mg/kg
Method: (§4) The levels of inflammatory mediators (IL-1β, TNF-α, and PGE2) in rat paw tissue homogenate were measured using the following Kits: Rat TNF-α (Tumor Necrosis Factor Alpha) ELISA Kit from Elabscience® Company, Houston, TX, USA, Interleukin 1 Beta (IL-1b) Organism Species: Rattus norvegicus (Rat) from Cloud Clone Crop Company and Rat PGE2 (Prostaglandin E2) ELISA Kit from Fine test® company Hubei, China. In addition, oxidative stress parameters in rat paw tissue homogenate were measured using superoxide dismutase, glutathione peroxidase, and catalase Kits from the Biodiagnostic company, Birmingham, UK.
(§5) Rats were slaughtered, and their paw tissues were gathered and weighed five hours after the carrageenan was administered. The tissues underwent processing after being fixed in 10% formalin. Rat paw tissue was homogenized, and its oxidative stress indices (SOD, CAT, and GPx) as well as the levels of inflammatory mediators (IL-1β, TNF-α, and PGE2) were measured.

GPx = GPx activity in rat paw tissue homogenate (carrageenan model); format: in vivo
Method: as §4, §5

SOD = SOD activity in rat paw tissue homogenate (carrageenan model); format: in vivo
Method: as §4, §5

dermal inflammation = experiment: Histopathological assessment of paw skin tissue (carrageenan model); format: in vivo, rat; details: Group 3, ibuprofen 10 mg/kg; 5 h after carrageenan
Description: Five hours following the carrageenan injection, tissue specimen samples from the paw skin tissue of every group under study were removed for histological examination. Prior to being submerged in paraffin blocks, they were fixed in a 10% formalin solution and stained with hematoxylin-eosin. Using a microtome, paraffin sections with a thickness of 5 µm were cut, and hematoxylin and eosin were frequently applied to the sections. Microscopically, these tissue slices were inspected. Consequently, the sections were examined under a light microscope; on the other hand, photos taken with a digital camera (Canon Power-shot D10) recorded the progression of paw oedema.

[3] = MCF7, read-out: In Vitro Cytotoxicity IC50 (µg/mL) MCF-7
[4] = HepG2, read-out: In Vitro Cytotoxicity IC50 (µg/mL) HepG-2
[5] = paw tissue 5 h after carrageenan, ibuprofen 10 mg/kg

Structure (SMILES) | zone of inhibition at 1000 µg/mL (P. aeruginosa) [mm] | P. aeruginosa %Activity Index (P. aeruginosa) [%] | zone of inhibition at 1000 µg/mL (S. aureus) [mm] | S. aureus %Activity Index (S. aureus) [%] | zone of inhibition at 1000 µg/mL (C. albicans) [mm] | C. Albicans %Activity Index (C. albicans) [%] | zone of inhibition at 1000 µg/mL (E. coli) [mm] | E. coli %Activity Index (E. coli) [%] | IC50 (MCF-7 cancer cell line; [3]) [µg/mL] | Selectivity Index MCF-7 (MCF-7 cancer cell line) | IC50 (HepG-2 cancer cell line; [4]) [µg/mL] | Selectivity Index HepG2 (HepG-2 cancer cell line) | also measured
O=c1cc(-c2ccc(O)c(O)c2)oc2cc(O[C@@H]3O[C@H](CO)[C@@H](O)[C@H](O)[C@H]3O)cc(O)c12 [Compound 3, luteolin 7-O-β-D-glucoside] | 11.8 ± 0.25 | 51.5 | 14.8 ± 0.15 | 61.9 | 9.87 ± 0.15 | 36.7 | 8.8 ± 0.15 | 33.8 | 17.8 ± 1.3 (≈ 39.7 µM) | 2.8 | 24.8 ± 1.9 (≈ 55.4 µM) | 2 | IC50 [1]: 49.6 ± 2.7 µg/mL (≈ 111 µM)
O=c1cc(-c2ccc(O)cc2)oc2cc(O[C@@H]3O[C@H](CO)[C@@H](O)[C@H](O)[C@H]3O)cc(O)c12 [Compound 4, apigenin 7-O-β-D-glucoside] | 9.8 ± 0.15 | 42.8 | 11.9 ± 0.15 | 50 | 5.95 ± 0.07 | 22.1 | 6.8 ± 0.15 | 26.1 | 39.8 ± 2.2 (≈ 92 µM) | 2.1 | 43.4 ± 2.5 (≈ 100 µM) | 1.9 | IC50 in ABTS assay (ABTS antioxidant assay): 51.27 ± 0.25; IC50 ([1]; MTT, normal cells, read-out: In Vitro Cytotoxicity IC50 (µg/mL) WI-38): 84.3 ± 4.3 µg/mL (≈ 195 µM)
CCC(CC[C@@H](C)C1CCC2C3CC=C4C[C@@H](O[C@@H]5O[C@H](CO)[C@@H](O)[C@H](O)[C@H]5O)CC[C@]4(C)C3CC[C@@]21C)C(C)C (stereo partly drawn) [Compound 5, β-sitosterol 3-O-β-D-glucoside] | 7.9 ± 0.1 | 34.5 | 10.8 ± 0.2 | 49.6 | 4.9 ± 0.1 | 18.2 | 5.1 ± 0.1 | 19.6 |  | 0.66 |  | 0.54 | IC50 (MCF-7 cancer cell line; MCF7, MTT, read-out: In Vitro Cytotoxicity IC50 (µg/mL) MCF-7): 52.8 ± 2.9 µg/mL (≈ 91.5 µM); IC50 (HepG-2 cancer cell line; HepG2, MTT, read-out: In Vitro Cytotoxicity IC50 (µg/mL) HepG-2): 63.6 ± 3.4 µg/mL (≈ 110 µM); IC50 ([1]; WI-38 normal lung fibroblast cells, MTT, normal cells, read-out: In Vitro Cytotoxicity IC50 (µg/mL) WI-38): 34.8 ± 2.1 µg/mL (≈ 60.3 µM)
COc1cccc2c1C(=O)c1c(O)c3c(c(O)c1C2=O)C[C@@](O)(C(=O)CO)C[C@@H]3O[C@H]1C[C@H](N)[C@H](O)[C@H](C)O1 [Doxorubicin, doxorubicin, reference compound] |  |  |  |  |  |  |  |  |  |  | 4.5 ± 0.2 (≈ 8.28 µM) |  | 
CC(C)Cc1ccc(C(C)C(=O)O)cc1 (stereo not drawn) [Ibuprofen, ibuprofen, reference compound] |  |  |  |  |  |  |  |  |  |  |  |  | % Inhibition (%I) of paw oedema ([2]; 1 h): 15.62%; Increase in Paw Oedema ([2]; 1 h): 0.69 ± 0.16 mL; % Inhibition (%I) of paw oedema ([2]; 2 h): 25.62%; Increase in Paw Oedema ([2]; 2 h): 1.57 ± 0.21 mL; % Inhibition (%I) of paw oedema ([2]; 3 h): 28.5%; Increase in Paw Oedema ([2]; 3 h): 1.82 ± 0.38 mL; % Inhibition (%I) of paw oedema ([2]; 4 h): 62.66%; Increase in Paw Oedema ([2]; 4 h): 1.49 ± 0.47 mL; % Inhibition (%I) of paw oedema ([2]; 5 h): 70.9%; Increase in Paw Oedema ([2]; 5 h): 1.20 ± 0.37 mL; CAT (U/gm Tissue) (CAT): 2.20 ± 0.20 U/gm Tissue; GSH protection (GPx; ibuprofen alone): 78.74%; GPx (U/gm Tissue) (GPx; [5]): 93.35 ± 8.84 U/gm Tissue; SOD protection (SOD; ibuprofen alone): 75.17%; SOD (U/gm Tissue) (SOD; [5]): 142.1 ± 14.71 U/gm Tissue; Histopathology of paw skin (H&E) (dermal inflammation): mild dermal inflammation
